Species: Rattus norvegicus
Experiment: DrugMatrix - Regimen: Daily Repeat
Format: toxicity, organism-based, Sprague-Dawley
Set-up: regimen Daily Repeat, gender Male, age 6-8 weeks
Details: in vivo, po, route oral GAVAGE, vehicle 100 % SALINE; for ABSOLUTE BASOPHIL / ABSOLUTE EOSINOPHIL / ABSOLUTE LYMPHOCYTE / ABSOLUTE MONOCYTE / ABSOLUTE SEGMENTED NEUTROPHIL / BASOPHIL / EOSINOPHIL / ERYTHROCYTE COUNT / HEMATOCRIT / HEMOGLOBIN / LEUKOCYTE COUNT / LYMPHOCYTE / MEAN CORPUSCULAR HEMOGLOBIN / MEAN CORPUSCULAR HEMOGLOBIN CONCENTRATION / MEAN CORPUSCULAR VOLUME / MONOCYTE / NEUTROPHIL / NUCLEATED RED BLOOD CELLS / PLATELET COUNT: tissue Blood; for ALANINE AMINOTRANSFERASE / ALBUMIN / ALKALINE PHOSPHATASE / ASPARTATE AMINOTRANSFERASE / BLOOD UREA NITROGEN / CARBON DIOXIDE / CHLORIDE / CHOLESTEROL / CREATINE PHOSPHOKINASE / CREATININE / GLUCOSE / LACTATE DEHYDROGENASE / LIPASE / PHOSPHORUS / POTASSIUM / SODIUM / TOTAL BILIRUBIN / TOTAL PROTEIN / URIC ACID: tissue Plasma
[1] = 11 mg/kg, 120 h, dose level High, time 5 day
[2] = […], 72 h, dose 2.8 mg/Kg, dose level Low, time 3 day
[3] = […], 120 h, dose 2.8 mg/Kg, dose level Low, time 5 day

Compound: Cc1cc(CC(=O)O)n(C)c1C(=O)c1ccc(Cl)cc1 [ZOMEPIRAC]
- ABSOLUTE BASOPHIL [1]: 0 CELLS/uL
- ABSOLUTE EOSINOPHIL [1]: 95 CELLS/uL
- ABSOLUTE LYMPHOCYTE [1]: 12621.33 CELLS/uL
- ABSOLUTE MONOCYTE [1]: 94.67 CELLS/uL
- ABSOLUTE SEGMENTED NEUTROPHIL [1]: 855.67 CELLS/uL
- BASOPHIL [1]: 0%
- EOSINOPHIL [1]: 0.67%
- ERYTHROCYTE COUNT [1]: 5.5 x10E6/uL
- HEMATOCRIT [1]: 34.03%
- HEMOGLOBIN [1]: 13.2 G/DL
- LEUKOCYTE COUNT [1]: 13.67 x10E3/uL
- LYMPHOCYTE [1]: 92.33%
- MEAN CORPUSCULAR HEMOGLOBIN [1]: 24.13 pg
- MEAN CORPUSCULAR HEMOGLOBIN CONCENTRATION [1]: 38.87 G/DL
- MEAN CORPUSCULAR VOLUME [1]: 62.1 fL
- MONOCYTE [1]: 0.67%
- NEUTROPHIL [1]: 6.33%
- NUCLEATED RED BLOOD CELLS [1]: 0 /100WBC
- PLATELET COUNT [1]: 1240 x10E3/uL
- ALANINE AMINOTRANSFERASE [1]: 49.33 u/L
- ALBUMIN [1]: 3.77 G/DL
- ALKALINE PHOSPHATASE [1]: 252.67 u/L
- ASPARTATE AMINOTRANSFERASE [1]: 97.67 u/L
- BLOOD UREA NITROGEN [1]: 15.67 mg/dL
- CARBON DIOXIDE [1]: 24 mmol/L
- CHLORIDE [1]: 105.33 MEQ/L
- CHOLESTEROL [1]: 76.67 mg/dL
- CREATINE PHOSPHOKINASE [1]: 395.67 u/L
- CREATININE [1]: 0.17 mg/dL
- GLUCOSE [1]: 143.33 mg/dL
- LACTATE DEHYDROGENASE [1]: 595 u/L
- LIPASE [1]: 8.67 u/L
- PHOSPHORUS [1]: 11.83 mg/dL
- POTASSIUM [1]: 6.93 MEQ/L
- SODIUM [1]: 148.57 MEQ/L
- TOTAL BILIRUBIN [1]: 0.13 mg/dL
- TOTAL PROTEIN [1]: 5.87 G/DL
- URIC ACID [1]: 2.33 mg/dL
- ABSOLUTE BASOPHIL [2]: 0 CELLS/uL
- ABSOLUTE EOSINOPHIL [2]: 111.67 CELLS/uL
- ABSOLUTE LYMPHOCYTE [2]: 15209 CELLS/uL
- ABSOLUTE MONOCYTE [2]: 151.67 CELLS/uL
- ABSOLUTE SEGMENTED NEUTROPHIL [2]: 1061 CELLS/uL
- BASOPHIL [2]: 0%
- EOSINOPHIL [2]: 0.67%
- ERYTHROCYTE COUNT [2]: 5.59 x10E6/uL
- HEMATOCRIT [2]: 34.1%
- HEMOGLOBIN [2]: 13.53 G/DL
- LEUKOCYTE COUNT [2]: 16.53 x10E3/uL
- LYMPHOCYTE [2]: 91.33%
- MEAN CORPUSCULAR HEMOGLOBIN [2]: 24.2 pg
- MEAN CORPUSCULAR HEMOGLOBIN CONCENTRATION [2]: 39.7 G/DL
- MEAN CORPUSCULAR VOLUME [2]: 60.97 fL
- MONOCYTE [2]: 1%
- NEUTROPHIL [2]: 7%
- NUCLEATED RED BLOOD CELLS [2]: 0 /100WBC
- PLATELET COUNT [2]: 1145.33 x10E3/uL
- ALANINE AMINOTRANSFERASE [2]: 50.67 u/L
- ALBUMIN [2]: 4 G/DL
- ALKALINE PHOSPHATASE [2]: 259 u/L
- ASPARTATE AMINOTRANSFERASE [2]: 76.67 u/L
- BLOOD UREA NITROGEN [2]: 14.67 mg/dL
- CARBON DIOXIDE [2]: 23 mmol/L
- CHLORIDE [2]: 102 MEQ/L
- CHOLESTEROL [2]: 65.33 mg/dL
- CREATINE PHOSPHOKINASE [2]: 362.33 u/L
- CREATININE [2]: 0.2 mg/dL
- GLUCOSE [2]: 180 mg/dL
- LACTATE DEHYDROGENASE [2]: 137 u/L
- LIPASE [2]: 12.33 u/L
- PHOSPHORUS [2]: 13.07 mg/dL
- POTASSIUM [2]: 6.11 MEQ/L
- SODIUM [2]: 141.93 MEQ/L
- TOTAL BILIRUBIN [2]: 0.2 mg/dL
- TOTAL PROTEIN [2]: 5.77 G/DL
- URIC ACID [2]: 1.6 mg/dL
- ABSOLUTE BASOPHIL [3]: 0 CELLS/uL
- ABSOLUTE EOSINOPHIL [3]: 70.67 CELLS/uL
- ABSOLUTE LYMPHOCYTE [3]: 13627.67 CELLS/uL
- ABSOLUTE MONOCYTE [3]: 0 CELLS/uL
- ABSOLUTE SEGMENTED NEUTROPHIL [3]: 1235 CELLS/uL
- BASOPHIL [3]: 0%
- EOSINOPHIL [3]: 0.33%
- ERYTHROCYTE COUNT [3]: 5.81 x10E6/uL
- HEMATOCRIT [3]: 35.67%
- HEMOGLOBIN [3]: 14.07 G/DL
- LEUKOCYTE COUNT [3]: 14.93 x10E3/uL
- LYMPHOCYTE [3]: 91.33%
- MEAN CORPUSCULAR HEMOGLOBIN [3]: 24.23 pg
- MEAN CORPUSCULAR HEMOGLOBIN CONCENTRATION [3]: 39.47 G/DL
- MEAN CORPUSCULAR VOLUME [3]: 61.53 fL
- MONOCYTE [3]: 0%
- NEUTROPHIL [3]: 8.33%
- NUCLEATED RED BLOOD CELLS [3]: 0 /100WBC
- PLATELET COUNT [3]: 1274.67 x10E3/uL
- ALANINE AMINOTRANSFERASE [3]: 59.33 u/L
- ALBUMIN [3]: 4.17 G/DL
- ALKALINE PHOSPHATASE [3]: 331 u/L
- ASPARTATE AMINOTRANSFERASE [3]: 103.33 u/L
- BLOOD UREA NITROGEN [3]: 16.33 mg/dL
- CARBON DIOXIDE [3]: 22.67 mmol/L
- CHLORIDE [3]: 104.67 MEQ/L
- CHOLESTEROL [3]: 64.33 mg/dL
- CREATINE PHOSPHOKINASE [3]: 532.33 u/L
- CREATININE [3]: 0.2 mg/dL
- GLUCOSE [3]: 159.67 mg/dL
- LACTATE DEHYDROGENASE [3]: 749.67 u/L
- LIPASE [3]: 10 u/L
- PHOSPHORUS [3]: 12.53 mg/dL
- POTASSIUM [3]: 6.9 MEQ/L
- SODIUM [3]: 147.37 MEQ/L
- TOTAL BILIRUBIN [3]: 0.2 mg/dL
- TOTAL PROTEIN [3]: 6.2 G/DL
- URIC ACID [3]: 2 mg/dL

— ChEMBL document CHEMBL3885881, “DrugMatrix”
